Source: ChEMBL document CHEMBL1146569, “The pterocellins, novel bioactive alkaloids from the marine bryozoan Pterocella vesiculosa” (J Nat Prod, 2003)

Experiments:
Assay type in all cases: functional
COLO 205 = assay: Growth inhibition of human COLO205 cells
LOX IMVI = assay: Growth inhibition of human LOXIMVI cells
Escherichia coli = assay: Antimicrobial activity against Escherichia coli assessed per disk
MOLT-4 = assay: Growth inhibition of human MOLT4 cells
Amorphotheca resinae = assay: Antimicrobial activity against Cladosporium resinae assessed per disk
DU-145 = assay: Growth inhibition of human DU145 cells
BT-549 = assay: Growth inhibition of human BT549 cells
SNB-19 = assay: Growth inhibition of human SNB19 cells
TK-10 = assay: Growth inhibition of human TK10 cells
MDA-MB-231 = assay: Growth inhibition of human MDA-MB-231 cells
M14 = assay: Growth inhibition of human M14 cells
EKVX = assay: Growth inhibition of human EKVX cells
A549 = assay: Growth inhibition of human A549 cells
U-251 = assay: Growth inhibition of human U251 cells
SN12C = assay: Growth inhibition of human SN12C cells
SNB-75 = assay: Growth inhibition of human SNB75 cells
NCI-H23 = assay: Growth inhibition of human NCI-H23 cells
NCI-H522 = assay: Growth inhibition of human NCI-H522 cells
Candida albicans = assay: Antimicrobial activity against Candida albicans assessed per disk
SK-OV-3 = assay: Growth inhibition of human SKOV3 cells
ACHN = assay: Growth inhibition of human ACHN cells
OVCAR-5 = assay: Growth inhibition of human OVCAR5 cells
UACC-62 = assay: Growth inhibition of human UACC62 cells
OVCAR-4 = assay: Growth inhibition of human OVCAR4 cells
SK-MEL-2 = assay: Growth inhibition of human SK-MEL-2 cells
NCI/ADR-RES = assay: Growth inhibition of human NCI/ADR-RES cells
786-0 = assay: Growth inhibition of human 786-0 cells
HL-60(TB) = assay: Growth inhibition of human HL-60(TB) cells
HT-29 = assay: Growth inhibition of human HT-29 cells
[1] = tested on: Trichophyton mentagrophytes; assay: Antimicrobial activity against Trichophyton mentagrophytes assessed per disk
HOP-92 = assay: Growth inhibition of human HOP92 cells
MCF7 = assay: Growth inhibition of human MCF7 cells
A498 = assay: Growth inhibition of human A498 cells
T47D = assay: Growth inhibition of human T47D cells
RXF 393 = assay: Growth inhibition of human RXF393 cells
HCT-116 = assay: Growth inhibition of human HCT116 cells
OVCAR-8 = assay: Growth inhibition of human OVCAR8 cells
MDA-N = assay: Growth inhibition of human MDA-N cells
UACC-257 = assay: Growth inhibition of human UACC257 cells
HCC 2998 = assay: Growth inhibition of human HCC2998 cells
KM12 = assay: Growth inhibition of human KM12 cells
Pseudomonas aeruginosa = assay: Antimicrobial activity against Pseudomonas aeruginosa assessed per disk
SF-539 = assay: Growth inhibition of human SF539 cells
CCRF-CEM = assay: Growth inhibition of human CCRF-CEM cells
HOP-62 = assay: Growth inhibition of human HOP62 cells
UO-31 = assay: Growth inhibition of human UO31 cells
[2] = read-out: LC50 (the source's name)

COc1cn2c(cc1=O)C(=O)c1ccnc(Cc3ccccc3)c1-2 [PTEROCELLIN B]
GI50 (COLO 205): 700 nM
TGI (COLO 205): 2300 nM
CC50 (COLO 205; [2]): 6100 nM
GI50 (LOX IMVI): 400 nM
LC50 (LOX IMVI): 13200 nM
TGI (LOX IMVI): 2400 nM
MIC (Escherichia coli): >60 µg
GI50 (MOLT-4): 1400 nM
LC50 (concentration killing 50% of cells) (MOLT-4): 5600 nM
TGI (MOLT-4): 2900 nM
MIC (Amorphotheca resinae): >60 µg
GI50 (DU-145): 200 nM
TGI (DU-145): 300 nM
CC50 (DU-145; [2]): 600 nM
GI50 (BT-549): 1500 nM
TGI (BT-549): 2900 nM
CC50 (BT-549; [2]): 5600 nM
GI50 (SNB-19): 1600 nM
TGI (SNB-19): 3300 nM
CC50 (SNB-19; [2]): 7000 nM
GI50 (TK-10): 1500 nM
TGI (TK-10): 2900 nM
CC50 (TK-10; [2]): 5600 nM
GI50 (MDA-MB-231): 3300 nM
TGI (MDA-MB-231): 29600 nM
CC50 (MDA-MB-231; [2]): > 100000 nM
GI50 (M14): 100 nM
LC50 (concentration killing 50% of cells) (M14): 500 nM
TGI (M14): 200 nM
GI50 (EKVX): 1400 nM
TGI (EKVX): 3800 nM
CC50 (EKVX; [2]): 10700 nM
GI50 (A549): 200 nM
LC50 (50% cell kill concentration) (A549): 1800 nM
TGI (A549): 500 nM
GI50 (U-251): 1000 nM
TGI (U-251): 2200 nM
CC50 (U-251; [2]): 4700 nM
GI50 (SN12C): 500 nM
LC50 (SN12C): 5500 nM
TGI (SN12C): 1800 nM
GI50 (SNB-75): 200 nM
TGI (SNB-75): 900 nM
CC50 (SNB-75; [2]): 5300 nM
GI50 (NCI-H23): 100 nM
LC50 (concentration causing 50% net cell kill) (NCI-H23): 700 nM
TGI (NCI-H23): 300 nM
GI50 (NCI-H522): 1100 nM
TGI (NCI-H522): 2400 nM
CC50 (NCI-H522; [2]): 5200 nM
MIC (Candida albicans): >60 µg
GI50 (SK-OV-3): 2700 nM
TGI (SK-OV-3): 13800 nM
CC50 (SK-OV-3; [2]): 47100 nM
GI50 (ACHN): 1100 nM
TGI (ACHN): 2900 nM
CC50 (ACHN; [2]): 7800 nM
GI50 (OVCAR-5): 1200 nM
TGI (OVCAR-5): 2400 nM
CC50 (OVCAR-5; [2]): 4900 nM
GI50 (UACC-62): 200 nM
LC50 (50% cell kill) (UACC-62): 4100 nM
TGI (UACC-62): 600 nM
GI50 (OVCAR-4): 1300 nM
LC50 (OVCAR-4): 5600 nM
TGI (OVCAR-4): 2700 nM
GI50 (SK-MEL-2): 700 nM
TGI (SK-MEL-2): 2200 nM
CC50 (SK-MEL-2; [2]): 5300 nM
GI50 (NCI/ADR-RES): 1400 nM
TGI (NCI/ADR-RES): 3900 nM
CC50 (NCI/ADR-RES; [2]): 15300 nM
GI50 (786-0): 1800 nM
LC50 (concentration killing 50% of cells) (786-0): 17900 nM
TGI (786-0): 5000 nM
GI50 (HL-60(TB)): 1000 nM
TGI (HL-60(TB)): 5100 nM
CC50 (HL-60(TB); [2]): 43500 nM
GI50 (HT-29): 500 nM
LC50 (HT-29): 27300 nM
TGI (HT-29): 3200 nM
MIC [1]: 3.9 µg
GI50 (HOP-92): 1700 nM
TGI (HOP-92): 3800 nM
CC50 (HOP-92; [2]): 8800 nM
GI50 (MCF7): 1000 nM
TGI (MCF7): 3300 nM
CC50 (MCF7; [2]): > 100000 nM
GI50 (A498): 1900 nM
TGI (A498): 4000 nM
CC50 (A498; [2]): 8500 nM
GI50 (T47D): 1300 nM
TGI (T47D): 3200 nM
CC50 (T47D; [2]): > 100000 nM
GI50 (RXF 393): 2400 nM
LC50 (RXF 393): 45200 nM
TGI (RXF 393): 6900 nM
GI50 (HCT-116): 500 nM
LC50 (HCT-116): 4000 nM
TGI (HCT-116): 1600 nM
GI50 (OVCAR-8): 700 nM
TGI (OVCAR-8): 7600 nM
CC50 (OVCAR-8; [2]): 84800 nM
GI50 (MDA-N): 200 nM
TGI (MDA-N): 300 nM
CC50 (MDA-N; [2]): 600 nM
GI50 (UACC-257): 200 nM
TGI (UACC-257): 700 nM
CC50 (UACC-257; [2]): 2900 nM
GI50 (HCC 2998): 400 nM
LC50 (concentration killing 50% of cells) (HCC 2998): 3200 nM
TGI (HCC 2998): 1000 nM
GI50 (KM12): 600 nM
TGI (KM12): 1900 nM
CC50 (KM12; [2]): 4500 nM
MIC (Pseudomonas aeruginosa): >60 µg
GI50 (SF-539): 1100 nM
TGI (SF-539): 2700 nM
CC50 (SF-539; [2]): 6400 nM
GI50 (CCRF-CEM): 1700 nM
TGI (CCRF-CEM): 5200 nM
CC50 (CCRF-CEM; [2]): > 100000 nM
GI50 (HOP-62): 1000 nM
TGI (HOP-62): 2100 nM
CC50 (HOP-62; [2]): 4600 nM
GI50 (UO-31): 1300 nM
TGI (UO-31): 2800 nM
CC50 (UO-31; [2]): 5700 nM
